In patent US11351173B2, “Substituted pyrrolo[1,2-a]pyrimidines and their use in the treatment of medical disorders” (Bial—R&D Investments, S.A., priority 2014, dated 2022):
Converted amounts (≈) assume the structure as drawn.

Assays:
[1] = target: T1, glucocerebrosidase (Gcase) (Homo sapiens, UniProt P04062); assay: Glucocerebrosidase (Gcase) activation assay, 4-methylumbelliferyl-beta-D-glucopyranoside substrate, fluorescence readout; format: biochemical; details: for activation at 0.1 µM: test compound at 0.1 μM, read-out: Percent Gcase Activation, 0.1 μM Test Compound; for activation at 1 µM: test compound at 1.0 μM, read-out: Percent Gcase Activation, 1 μM Test Compound
T1 construct: micellar solution containing 10 nM GCase and 100 nM saposin C
T1 sequence (P04062 40-536): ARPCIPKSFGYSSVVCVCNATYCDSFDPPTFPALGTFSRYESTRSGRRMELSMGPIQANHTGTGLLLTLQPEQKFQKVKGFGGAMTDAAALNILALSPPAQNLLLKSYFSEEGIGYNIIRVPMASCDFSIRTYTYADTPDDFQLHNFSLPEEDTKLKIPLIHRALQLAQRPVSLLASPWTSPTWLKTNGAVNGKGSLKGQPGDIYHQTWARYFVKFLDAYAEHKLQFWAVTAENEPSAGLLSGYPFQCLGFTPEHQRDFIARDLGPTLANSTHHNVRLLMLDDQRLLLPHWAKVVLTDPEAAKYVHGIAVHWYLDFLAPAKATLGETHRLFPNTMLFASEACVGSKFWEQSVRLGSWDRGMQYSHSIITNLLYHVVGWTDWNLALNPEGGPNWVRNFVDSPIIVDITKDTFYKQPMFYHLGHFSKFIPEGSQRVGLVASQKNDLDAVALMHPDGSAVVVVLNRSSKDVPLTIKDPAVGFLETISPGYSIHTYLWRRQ
How it was run: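 Test compounds are first screened at 1.0 and 0.1 μM final, then titrated in 8 points (3-fold from 5 μM) against human GCase with saposin C in phosphatidylserine/triton X-100 micelles at pH 4.7. Reactions run 15 min at room temperature, with fluorescence read at 365/440 nm.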

physchem = details: water, Compound Solubility in Water
[2] = Compound solubility in water; details: water, Compound Solubility in Water

| activation at 0.1 µM [1] | activation at 1 µM [1] | solubility [2] | SMILES | solubility (physchem) |
| --- | --- | --- | --- | --- |
| > 20% | > 60% | 1.7 µg/mL (≈ 4.76 µM) | Cc1cc(C)n2ccc(C(=O)NC3CCOc4c(F)ccc(F)c43)c2n1 (stereo not drawn) [III-171] | – |
| < 10% | < 30% | 30.5 µg/mL (≈ 96.7 µM) | CCO[C@H]1CC[C@H](NC(=O)c2ccn3c(C)cc(C)nc23)CC1 [III-99] | – |
| < 10% | < 30% | 29.3 µg/mL (≈ 97.9 µM) | Cc1cc(C)n2ccc(C(=O)NC3CC4CCC(C3)O4)c2n1 (stereo not drawn) [III-169] | – |
| < 10% | < 30% | 38.3 µg/mL (≈ 107 µM) | CCOCCO[C@H]1CC[C@H](NC(=O)c2ccn3c(C)cc(C)nc23)CC1 [III-102] | – |
| 10 to 20% | > 60% | 1.5 µg/mL (≈ 3.43 µM) | COCc1cc(C(F)F)nc2c(C(=O)NC3(C)CCOc4cc(F)c(F)cc43)ccn12 (stereo not drawn) [III-57] | – |
| < 10% | 30 to 60% | 12.3 µg/mL (≈ 36 µM) | Cc1cc(C)n2ccc(C(=O)NC3CCC(C4CCCO4)CC3)c2n1 (stereo not drawn) [III-199] | – |

| SMILES | activation at 0.1 µM [1] | activation at 1 µM [1] | solubility [2] | solubility (physchem) |
| --- | --- | --- | --- | --- |
| CCCCCC(=O)N1C2CCC1CC(NC(=O)c1ccn3c(C)cc(C)nc13)C2 (stereo not drawn) [III-127] | < 10% | < 30% | – | 6.5 µg/mL (≈ 16.4 µM) |
| Cc1cc(C)n2ccc(C(=O)NC3CC4CCC(C3)N4CC(F)(F)F)c2n1 (stereo not drawn) [III-128] | < 10% | < 30% | – | 18.9 µg/mL (≈ 49.7 µM) |
